We go through 28 compounds from PubChem BioAssay (NCI).

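Dose response: 5 concentrations. Exposure: 48 h. Format: 96-well plates. Endpoint: linear interpolation; highest concentration if not reached. TGI: concentration producing complete growth inhibition.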

Test systems include OVCAR-4 ovarian; SW-620 colon; SNB-19 CNS; HCC-2998 colon.
Experiment in all cases: NCI anticancer screen, dose series, 48 h

For `COC(=O)c1cc(Br)c(C(=O)C(Cl)(Cl)Cl)[nH]1`, the TGI with OVCAR-4 ovarian, in the assay with SW-620 colon and in the assay on SNB-19 CNS was more than 100 µM throughout.

Take `COC(=O)[C@@H]1O[C@]12C(CO[Si](C)(C)C(C)(C)C)OC(n1ccc(=O)[nH]c1=O)C2O[Si](C)(C)C(C)(C)C` (some centres not stated): the TGI in the assay on OVCAR-4 ovarian, in the assay on HCC-2998 colon, in the assay on SW-620 colon and with SNB-19 CNS was more than 100 µM throughout.

As for `NCC(=O)C(O)C(O)C(O)CO` (configuration not stated), the TGI in the assay on OVCAR-4 ovarian, in the assay with HCC-2998 colon, in the assay on SW-620 colon and in the assay with SNB-19 CNS was more than 100 µM throughout.

As for `NC(=S)SCCC(=O)O`, the TGI with OVCAR-4 ovarian, with HCC-2998 colon, with SW-620 colon and in the assay on SNB-19 CNS was more than 100 µM throughout.

On to `CNC(=O)Nc1cc2c3c(c1)CCCN3CCC2`, for which the TGI in the assay with OVCAR-4 ovarian, with HCC-2998 colon, in the assay with SW-620 colon and with SNB-19 CNS was more than 10 µM each time.

As to `O=C1O/C(=C\c2ccc(O)c(Br)c2)C(c2ccc(O)cc2)=C1Cl`, the TGI with OVCAR-4 ovarian, with HCC-2998 colon, in the assay with SW-620 colon and in the assay on SNB-19 CNS was more than 100 µM throughout.

With `COC(=O)C1([C@@H]2C[C@@H](O)[C@]3(C)CC/C=C(\C)CCC[C@H](C)[C@H](O)[C@@H]2O3)CC1`, the TGI in the assay with OVCAR-4 ovarian, with HCC-2998 colon, with SW-620 colon and with SNB-19 CNS was more than 100 µM throughout.

Take `C=CCNC1=C2C[C@@H](C)C[C@@H](OC)[C@H](OC(=O)CN(C)C)[C@H](C)/C=C(\C)[C@@H](OC(N)=O)[C@H](OC)/C=C\C=C(/C)C(=O)NC(=CC1=O)C2=O`: the TGI was determined as 26 µM with OVCAR-4 ovarian, 0.284 µM with HCC-2998 colon, 26.9 µM in the assay on SW-620 colon and 20.8 µM with SNB-19 CNS.

Consider `CN(C)c1ccc(N=Nc2cccc3ccoc23)cc1`, for which the TGI in the assay on OVCAR-4 ovarian, in the assay with HCC-2998 colon, with SW-620 colon and with SNB-19 CNS was more than 100 µM in each case.

In the case of `c1ccc(COCC23CCN(Cc4ccccc4)C(CC(OCc4ccccc4)C2)S3)cc1` (configuration not stated), the TGI in the assay on OVCAR-4 ovarian, with HCC-2998 colon, with SW-620 colon and with SNB-19 CNS was more than 100 µM in each case.

Regarding `CCOC(=O)CSc1nc2ccccc2c(=O)n1N`, the TGI in the assay on OVCAR-4 ovarian, with HCC-2998 colon, in the assay on SW-620 colon and in the assay with SNB-19 CNS was more than 100 µM each time.

For `CN(CCc1ccc(Br)cc1)CCN1CCCCC1`, the TGI in the assay on OVCAR-4 ovarian, with HCC-2998 colon, with SW-620 colon and in the assay with SNB-19 CNS was more than 100 µM in each case.

In the case of `CCOC(=O)c1ccc2c(c1)nc1n2C(c2c(F)cccc2F)SC1` (configuration not stated), the TGI with OVCAR-4 ovarian is more than 100 µM; in the assay with HCC-2998 colon, more than 100 µM; in the assay on SW-620 colon it was more than 100 µM; with SNB-19 CNS, 83.5 µM.

Turning to `Cc1c(O)c(OC2OC(CO)C(O)C(O)C2O)cc2c1CC[C@@H]1C2(C)C(=O)C[C@]2(C)[C@@H]([C@@](C)(O)C(O)/C=C/C(C)(C)O)[C@H](O)C[C@@]12C` (some centres not stated), the TGI in the assay on OVCAR-4 ovarian, in the assay on HCC-2998 colon, in the assay on SW-620 colon and in the assay on SNB-19 CNS was more than 100 µM in each case.

For the compound `N#Cc1c(C#N)c(-c2cccc([N+](=O)[O-])c2)n(-c2ccccc2)c1N`, the TGI in the assay on OVCAR-4 ovarian, in the assay on HCC-2998 colon, with SW-620 colon and with SNB-19 CNS was more than 100 µM in each case.

Take `COC(=O)c1cc(C)ccc1/C=C1\Cc2cc(C)c(C)cc2C1=O`: the TGI in the assay with OVCAR-4 ovarian, in the assay with HCC-2998 colon, with SW-620 colon and with SNB-19 CNS was more than 100 µM throughout.

Take `O=C1c2ccccc2C(=O)c2c(OCC3CO3)ccc(OCC3CO3)c21` (configuration not stated): the TGI in the assay on OVCAR-4 ovarian is 30.9 µM; in the assay on HCC-2998 colon, more than 46.3 µM; in the assay with SW-620 colon, 5.68 µM; in the assay with SNB-19 CNS, 27.2 µM.

As for `COC(=O)[C@H](CCSC)NC(=O)c1ccc(CNC(=O)/C=C/c2cccc(Oc3ccccc3)c2)cc1`, the TGI with OVCAR-4 ovarian was more than 90.6 µM; in the assay with HCC-2998 colon, more than 84 µM; in the assay with SW-620 colon, more than 100 µM; with SNB-19 CNS, more than 100 µM.

On to `Cc1ccc(S(=O)(=O)Nn2c(-c3ccccc3)c(C#N)c(-c3ccc(Cl)cc3)c(C#N)c2=O)cc1`, for which the TGI in the assay on OVCAR-4 ovarian, with HCC-2998 colon, in the assay on SW-620 colon and with SNB-19 CNS was more than 100 µM in each case.

As for `C=C(Cl)C(C)(Cl)CCC(Cl)C(C)(C)Cl` (configuration not stated), the TGI in the assay on OVCAR-4 ovarian, with HCC-2998 colon, in the assay with SW-620 colon and in the assay on SNB-19 CNS was more than 100 µM in each case.

In the case of `CCC1(O)CC(OC2CC(N(C)C)C(OC3CC(O)C(OC4OC(C)C(=O)C=C4N)C(C)O3)C(C)O2)c2c(O)c3c(c(O)c2C1C(=O)OC)C(=O)c1cccc(O)c1C3=O` (configuration not stated), the figures for the TGI in the assay on HCC-2998 colon, with SW-620 colon and with SNB-19 CNS were 0.118 µM, 0.0845 µM and 0.976 µM, respectively.

As for `CC(C)[Si](OC12CCC(CC1O)CC2C(=O)O)(C(C)C)C(C)C` (configuration not stated), the TGI with OVCAR-4 ovarian came out at 25.1 µM; in the assay with SW-620 colon it was 41.9 µM; in the assay with SNB-19 CNS, 29.1 µM.

In the case of `O=C1CC2[C@@H](N3CCCC3)CCC(N1Cc1ccccc1)C2(O)O` (some centres not stated), the TGI with HCC-2998 colon, in the assay with SW-620 colon and in the assay with SNB-19 CNS was more than 100 µM each time.

`CC(=O)c1ccc(-c2oc(-c3ccccc3)cc2-c2ccc3c(c2)OCO3)s1`: the TGI in the assay on HCC-2998 colon and with SW-620 colon was more than 100 µM each time.

For the compound `COC(=O)c1cc(C#N)[nH]c1-c1ccsc1`, the TGI in the assay on OVCAR-4 ovarian, in the assay with HCC-2998 colon and in the assay with SW-620 colon was more than 100 µM in each case.

With `CC1CC(N)=Nc2ccccc2N1Cc1ccccc1` (configuration not stated), the TGI with OVCAR-4 ovarian came out at 34.5 µM; with SW-620 colon it was 25.2 µM; with SNB-19 CNS, 30.9 µM.

For `O=C1CN(c2cccc(C(F)(F)F)c2)C(=O)CN1NCNN1CC(=O)N(c2cccc(C(F)(F)F)c2)CC1=O`, the TGI in the assay on HCC-2998 colon, in the assay on SW-620 colon and in the assay with SNB-19 CNS was more than 100 µM in each case.

Turning to `NC(=O)/N=C(\N)NC(=O)c1ccccc1`, the TGI with HCC-2998 colon, in the assay with SW-620 colon and with SNB-19 CNS was more than 100 µM throughout.
